Where “and” joins values, the source holds several entries; their conditions need not be identical. Identical values can stand only once. After the bases stand the sugars from the 5' end (letter, count) and the backbone: PS all phosphorothioate, else s phosphorothioate and o phosphodiester by linkage. Methylation of C is not given here. e = 2'-O-(2-methoxyethyl) (MOE); k = constrained ethyl (cEt); d = 2'-deoxy (DNA)

In this data set the target is IRF4. The conditions noted are these: ASO.

On to ATTAAAGAGTGGTACA (sugars k3 d10 k3, PS), for which the target mRNA inhibition (SK-MEL-28, 4 µM) was -7%. Same read-out and setting: the same measure for ATTAAAGGGTAAGCAC (sugars k3 d10 k3, PS): 32%.

For ATTACTAGATTGTAGG (sugars k3 d10 k3, PS), where the note is “SK-MEL-28, 4 µM”, the target mRNA inhibition was 50%. In the case of ATTACTGCTTGAGGTT (sugars k3 d10 k3, PS), the target mRNA inhibition (SK-MEL-28, 4 µM) stood at 62%. For the sequence ATTATAGAGCATCACT (sugars k3 d10 k3, PS), the target mRNA inhibition (MM.1R, 1 µM) is -6%.

As to “ATTATATACTGGTTGG (sugars kdddddddddkekeke, PS)”, where the note is “MM.1R, 1 µM”, the target mRNA inhibition is 27%.

In the case of “ATTATATACTGGTTGG (sugars kkdddddddddekeke, PS)”, the target mRNA inhibition (MM.1R, 1 µM) was 43%.

For “ATTATATACTGGTTGG (sugars kkdddddddddkdkdk, PS)”, the target mRNA inhibition (MM.1R, 1 µM) was determined as 28%. With ATTCTTAGAATGCATA (sugars k3 d10 k3, PS), the target mRNA inhibition (SK-MEL-28, 4 µM) came out at 38%. Still for that read-out and setting: the same measure for ATTCTTAGAATGCATA (sugars k4 d8 k4, PS): 33%; for ATTGAGGCATACAGTG (sugars k3 d10 k3, PS): 30%; for ATTTATACTGTCTGGT (sugars k3 d10 k3, PS): 49%.

For the sequence ATTTTAAGGCCCTGTC (sugars k3 d10 k3, PS), where the note is “SK-MEL-28, 4 µM”, the target mRNA inhibition was 34%. Consider CAAAACAGTAAGAGGG (sugars k3 d10 k3, PS), for which the target mRNA inhibition (SK-MEL-28, 4 µM) is 31%.

CAAAACGCAGAGCCAG (sugars k3 d10 k3, PS): the target mRNA inhibition (SK-MEL-28, 4 µM) was 58%.

CAAAATGGTGTGTAAG (sugars k3 d10 k3, PS): the target mRNA inhibition (SK-MEL-28, 4 µM) is 25%. Still for that read-out and setting: the same measure for CAAAGAGCTTGCAGGT (sugars k3 d10 k3, PS): 4%; for CAAAGCAAGTGTCTAA (sugars k3 d10 k3, PS): 23%. As for CAAAGCGCACCGCAGG (sugars k3 d10 k3, PS), the target mRNA inhibition (MM.1R, 1 µM) was -4%. Consider CAAAGCGGGTTCACAA (sugars k3 d10 k3, PS), for which, under “SK-MEL-28, 4 µM”, the target mRNA inhibition turned out to be 16%. On the same count and under the same terms, the same measure for CAAATGACTTAGTCAG (sugars k3 d10 k3, PS): 55%. Same read-out and setting: the same measure for CAACACGGGAATTTCC (sugars k3 d10 k3, PS): 55%; for CAACAGCACTGTCCAC (sugars k3 d10 k3, PS): 43%. Same read-out and setting: the same measure for CAACCATTTTCACAAG (sugars k3 d10 k3, PS): 17%; for CAAGAACTGCAGCTCC (sugars k3 d10 k3, PS): 47%; for CAAGACAAATCTTCTG (sugars k3 d10 k3, PS): 13%.

For CAAGACAAGGGTTTGA (sugars k3 d10 k3, PS), for the setting “MM.1R, 1 µM”, the target mRNA inhibition was -3%. As for CAAGAGGTGCGAGTAC (sugars k3 d10 k3, PS), the target mRNA inhibition (SK-MEL-28, 4 µM) came to 22%. The same measure, in the same setting: the same measure for CAAGATCGAGCGGTGA (sugars k3 d10 k3, PS): 38%. As for “CAAGCAGTGATGTCAG (sugars kkddddddddddkeke, PS)”, under “MM.1R, 1 µM”, the target mRNA inhibition was 20% and 26%. Same read-out and setting: the same measure for “CAAGCAGTGATGTCAG (sugars kkdddddddddekeke, PS)”: 26% and 34%. Regarding CAAGGATAACCTGAAC (sugars k3 d10 k3, PS), the target mRNA inhibition (SK-MEL-28, 4 µM) is 26%. For the sequence “CAAGTGTCTAAAGTCC (sugars k2 d9 e3 k2, PS)”, the target mRNA inhibition (MM.1R, 1 µM) was 22% and 31%. For the sequence “CAAGTGTCTAAAGTCC (sugars kkdddddddddkekek, PS)”, the target mRNA inhibition (MM.1R, 1 µM) was 15% and 6%. CAAGTGTCTTCCACAA (sugars k3 d10 k3, PS): the target mRNA inhibition (SK-MEL-28, 4 µM) is 65%. Still for that read-out and setting: the same measure for CAATAAAATGTCACGC (sugars k3 d10 k3, PS): 47%. With CAATACTGTAAGGGCT (sugars k3 d10 k3, PS), the target mRNA inhibition (SK-MEL-28, 4 µM) was determined as 56%. Same read-out and setting: the same measure for CAATCATGATATTAGA (sugars k3 d10 k3, PS): 38%; for CAATGATGGCAGTCTA (sugars k3 d10 k3, PS): 40%.

CAATGGAGATACTTGT (sugars k3 d10 k3, PS): the target mRNA inhibition (MM.1R, 1 µM) is -16%. As for CAATTGAAATGGAGCA (sugars k3 d10 k3, PS), the target mRNA inhibition (SK-MEL-28, 4 µM) came out at 26%. CACAAAGCGGGTTCAC (sugars k3 d10 k3, PS): under “MM.1R, 1 µM”, the target mRNA inhibition was -12%. CACAAGCATAAAAGGT (sugars k3 d10 k3, PS): under “SK-MEL-28, 4 µM”, the target mRNA inhibition came to 26%. Still for that read-out and setting: the same measure for CACAAGTGGCCTTCCT (sugars k3 d10 k3, PS): 45%. Regarding CACACTGCCGTGATCT (sugars k3 d10 k3, PS), the target mRNA inhibition (MM.1R, 1 µM) came to 20%. Turning to CACATCACTTGGTCAA (sugars k3 d10 k3, PS), where the note is “SK-MEL-28, 4 µM”, the target mRNA inhibition is 72%. As to CACCACCTCGAGGCCA (sugars k3 d10 k3, PS), the target mRNA inhibition (SK-MEL-28, 4 µM) came out at 24%. The same measure, in the same setting: the same measure for CACCACTATTCGAGAG (sugars k3 d10 k3, PS): 48%; for CACCATGGCACAGTCT (sugars k3 d10 k3, PS): 79%; for CACCCACACAAGTCTT (sugars k3 d10 k3, PS): 9%. Regarding CACCTGATCTTGCTGC (sugars k3 d10 k3, PS), the target mRNA inhibition (MM.1R, 1 µM) amounted to 12%. With CACGAGGTTGCCGAGA (sugars k3 d10 k3, PS), the target mRNA inhibition was -3% (MM.1R, 0.0625 µM); 4% (MM.1R, 0.074 µM); 7% (MM.1R, 0.222 µM); 9% (MM.1R, 0.25 µM); 22% (MM.1R, 0.666 µM); 48% (MM.1R, 1 µM). In addition, the target mRNA inhibition (MM.1R, 2 µM) stood at 34%; the target mRNA inhibition (MM.1R, 4 µM) is 62%; the target mRNA inhibition (SK-MEL-28, 4 µM) stood at 64%.

Turning to CACGGACGAACGCGCA (sugars k3 d10 k3, PS), for the setting “SK-MEL-28, 4 µM”, the target mRNA inhibition was -2%. For the sequence CACTAAAGACTATTAG (sugars k3 d10 k3, PS), where the note is “SK-MEL-28, 4 µM”, the target mRNA inhibition is 5%. On to CACTAAGCTTGATAAA (sugars k3 d10 k3, PS), for which, where the note is “SK-MEL-28, 4 µM”, the target mRNA inhibition was -11%. Still for that read-out and setting: the same measure for CACTAATACCTACCTG (sugars k3 d10 k3, PS): 6%. On the same count and under the same terms, the same measure for CACTATGCCTGAACTG (sugars k3 d10 k3, PS): 10%; for CACTGGCATTGAGACG (sugars k3 d10 k3, PS): 69% and 76%. On the same count and under the same terms, the same measure for CAGAACTAATGTCCCC (sugars k3 d10 k3, PS): 69%; for CAGAAGGGCAACAGTT (sugars k3 d10 k3, PS): 38%. For the sequence CAGAATGGCGAGTTGG (sugars k3 d10 k3, PS), the target mRNA inhibition (MM.1R, 1 µM) was 31%. The same measure, in the same setting: the same measure for CAGAATGTTTCGACAT (sugars k3 d10 k3, PS): 14%. With CAGACATACCTACAAG (sugars k3 d10 k3, PS), the target mRNA inhibition (SK-MEL-28, 4 µM) came to 44%.

Take CAGATAGTTAAGTACT (sugars k3 d10 k3, PS): the target mRNA inhibition (SK-MEL-28, 4 µM) was determined as 44%. The same measure, in the same setting: the same measure for CAGCAAAGAGGGTCAC (sugars k3 d10 k3, PS): 61%; for CAGCAACTCCCTTGGG (sugars k3 d10 k3, PS): 23%. For CAGCACCGTGGTGCGA (sugars k3 d10 k3, PS), the target mRNA inhibition (MM.1R, 1 µM) was -27%. With CAGCACTCAGATTCTA (sugars k3 d10 k3, PS), the target mRNA inhibition (SK-MEL-28, 4 µM) was 12%. Take CAGCATAGCATTATCT (sugars k3 d10 k3, PS): the target mRNA inhibition (SK-MEL-28, 4 µM) was -51%.

As for CAGCATGACAGGGCGA (sugars k3 d10 k3, PS), the target mRNA inhibition (SK-MEL-28, 4 µM) came to 56%.

With CAGCCGAAGCATTTTA (sugars k3 d10 k3, PS), for the setting “MM.1R, 1 µM”, the target mRNA inhibition was found to be 0%. Still for that read-out and setting: the same measure for CAGGAGAGCCCCTACC (sugars k3 d10 k3, PS): -8%. CAGGAGCGCGGAGGGC (sugars k3 d10 k3, PS): the target mRNA inhibition (SK-MEL-28, 4 µM) worked out at 11%. Consider CAGGTTTCATTTCATT (sugars k4 d8 k4, PS), for which the target mRNA inhibition is, setting by setting: (MM.1R, 0.074 µM) 2%; (MM.1R, 0.222 µM) 3%; (MM.1R, 0.666 µM) 19%; (MM.1R, 2 µM) 15%; (SK-MEL-28, 0.185 µM) 14% and 13% and 18%; (SK-MEL-28, 4 µM) 54%. For the same sequence, the target mRNA inhibition reads like this: (SK-MEL-28, 5 µM) 57% and 55% and 67%; (SK-MEL-28, 15 µM) 74% and 72%. Consider CAGTAAACGCAAGTCT (sugars k3 d10 k3, PS), for which the target mRNA inhibition (MM.1R, 1 µM) was -14%. Turning to CAGTAAGAGGGCAGTC (sugars k3 d10 k3, PS), the target mRNA inhibition (SK-MEL-28, 4 µM) is 50%.

Consider “CAGTGACTTGCATCCA (sugars k2 d9 e3 k2, PS)”, for which the target mRNA inhibition (MM.1R, 1 µM) was 28%.

In the case of CAGTGACTTGCATCCA (sugars k3 d10 k3, PS), the target mRNA inhibition is, setting by setting: (MM.1R, 0.0625 µM) 40% and 20%; (MM.1R, 0.25 µM) 43% and 24%; (MM.1R, 1 µM) 53% and 38%; (MM.1R, 4 µM) 75% and 61%.

Turning to “CAGTGATGTCAGGTTT (sugars kddddddddddkekek, PS)”, the target mRNA inhibition (MM.1R, 1 µM) came out at 46%. With “CAGTGATGTCAGGTTT (sugars kkddddddddddkeke, PS)”, the target mRNA inhibition (MM.1R, 1 µM) stood at 41%. Same read-out and setting: the same measure for “CAGTGATGTCAGGTTT (sugars kkdddddddddekeke, PS)”: 47%; for “CAGTGATGTCAGGTTT (sugars kkkdddddddddkeke, PS)”: 34%.

On to CAGTGCTCTTTAACAA (sugars k3 d10 k3, PS), for which the target mRNA inhibition (SK-MEL-28, 4 µM) amounted to 37%. On the same count and under the same terms, the same measure for CAGTGGTGGCCGCGGG (sugars k3 d10 k3, PS): 27%; for CAGTTCTAAGCATTGC (sugars k3 d10 k3, PS): 33%.

These data come from the OligoGym collection.
